In patent US20230181614A1, “ADMINISTRATION OF CITICOLINE TO IMPROVE COGNITIVE PERFORMANCE, ATTENTIONAL PERFORMANCE, AND MOTOR FUNCTION” (KYOWA HAKKO BIO CO., LTD., priority 2014, published 2023):

Test system: Healthy subjects, ages 13-18
Assay: General Questionnaire
Format: in vivo, human
Conditions: 250 mg/day
Excerpt: Study participants were screened by telephone prior to study enrollment. Healthy subjects, ages 13-18, with no significant medical conditions and no history of co-morbid psychiatric disorder, current Axis I or II diagnosis, or previous participation in a pharmacotherapeutic trial, were selected. Use of any psychotropic medication or any previous head injury resulting in loss of consciousness for 5 or more minutes were used as exclusion criteria. While no participant met criteria for a neuropsychiatric disorder at enrollment, clinical assessments were still completed throughout the study to evaluate changes in mood state. In addition, self-reports of sleep habits, lifestyle, and exercise routines were also administered at baseline as well as at each study visit to assess changes in health habits during study participation. Following the completion of Visit 1 assessment, participants were given their 28-day supply of citicoline (250 mg or 500 mg) or placebo, which was randomly assigned. They were instructed to take one capsule a day every day for the next 28 days. Visit 2 occurred fourteen days after Visit 1. At Visit 2, the remaining study pills were counted and participant dosage calendars were checked to ensure compliance with the protocol. Additional neuropsychological measures and clinical assessments were administered during this visit. Participants returned for Visit 3 fourteen days later, on the 28th day of their study participation. The pill bottle and the dosage calendar were collected from each participant. Urine and blood were again obtained. Participants also participated in similar clinical and neuropsychological testing and clinical measures that were given during visit 1. The General Questionnaire and Exercise and Life Style Questionnaire are self-report questionnaires designed to assess a variety of symptoms, behaviors, and self-perceptions, including mood, complexion, exercise, food, and alcohol habits of each of the participants. The General Questionnaire was administered during each of the three study visits; the Exercise and Life Style Questionnaire was administered during each of the three study visits. The General Questionnaire included five summary categories (Vision, Depression, Attention, Sleep, and Complexion) each of which had multiple individual items. Within and between group analyses are reported below for each of the summary categories.

C[N+](C)(C)CCOP(=O)(O)OP(=O)([O-])OC[C@H]1O[C@@H](n2ccc(N)nc2=O)[C@H](O)[C@@H]1O [citicoline, Cytidine 5′-diphosphocholine]
Attention Total V3-V1 Difference Mean: -5.58
Complexion Total V3-V1 Difference Mean: -0.67
Depression Total V3-V1 Difference Mean: -7.37
Sleep Total V3-V1 Difference Mean: -5.59
Vision Total V3-V1 Difference Mean: -2.26
Attention Total V3 Mean (Visit 3): 38.48
Complexion Total V3 Mean (Visit 3): 3.96
Depression Total V3 Mean (Visit 3): 21.04
Sleep Total V3 Mean (Visit 3): 18.96
Vision Total V3 Mean (Visit 3): 6.59
General Questionnaire Attention Q13, Mean (V1 (baseline)): 3.52
General Questionnaire Attention Q14, Mean (V1 (baseline)): 2.37
General Questionnaire Attention Q15, Mean (V1 (baseline)): 3.89
General Questionnaire Attention Q16, Mean (V1 (baseline)): 3.19
General Questionnaire Attention Q17, Mean (V1 (baseline)): 3.30
General Questionnaire Attention Q18, Mean (V1 (baseline)): 2.63
General Questionnaire Attention Q19, Mean (V1 (baseline)): 6.59
General Questionnaire Attention Q20, Mean (V1 (baseline)): 3.48
General Questionnaire Attention Q21, Mean (V1 (baseline)): 3.22
General Questionnaire Attention Q22, Mean (V1 (baseline)): 4.00
General Questionnaire Attention Q23, Mean (V1 (baseline)): 4.15
General Questionnaire Attention Q24, Mean (V1 (baseline)): 3.67
General Questionnaire Attention Total, Mean (V1 (baseline)): 44.31
General Questionnaire Complexion Q33, Mean (V1 (baseline)): 2.78
General Questionnaire Complexion Q34, Mean (V1 (baseline)): 1.85
General Questionnaire Complexion Total, Mean (V1 (baseline)): 4.63
General Questionnaire Depression Q4, Mean (V1 (baseline)): 2.59
General Questionnaire Depression Q5, Mean (V1 (baseline)): 3.26
General Questionnaire Depression Q6, Mean (V1 (baseline)): 2.85
General Questionnaire Depression Q7, Mean (V1 (baseline)): 4.26
General Questionnaire Depression Q8, Mean (V1 (baseline)): 2.74
General Questionnaire Depression Q9, Mean (V1 (baseline)): 3.74
General Questionnaire Depression Q10, Mean (V1 (baseline)): 2.85
General Questionnaire Depression Q11, Mean (V1 (baseline)): 2.85
General Questionnaire Depression Q12, Mean (V1 (baseline)): 3.26
General Questionnaire Depression Total, Mean (V1 (baseline)): 28.41
General Questionnaire Sleep Q25, Mean (V1 (baseline)): 3.19
General Questionnaire Sleep Q26, Mean (V1 (baseline)): 2.78
General Questionnaire Sleep Q27, Mean (V1 (baseline)): 3.26
General Questionnaire Sleep Q28, Mean (V1 (baseline)): 3.63
General Questionnaire Sleep Q29, Mean (V1 (baseline)): 3.48
General Questionnaire Sleep Q30, Mean (V1 (baseline)): 2.11
General Questionnaire Sleep Q31, Mean (V1 (baseline)): 1.96
General Questionnaire Sleep Q32, Mean (V1 (baseline)): 4.15
General Questionnaire Sleep Total, Mean (V1 (baseline)): 24.56
General Questionnaire Vision Q1, Mean (V1 (baseline)): 3.44
General Questionnaire Vision Q2, Mean (V1 (baseline)): 3.26
General Questionnaire Vision Q3, Mean (V1 (baseline)): 2.15
General Questionnaire Vision Total, Mean (V1 (baseline)): 8.85
General Questionnaire Attention Q13, Mean (V3 (day 28)): 2.74
General Questionnaire Attention Q14, Mean (V3 (day 28)): 2.48
General Questionnaire Attention Q15, Mean (V3 (day 28)): 3.15
General Questionnaire Attention Q16, Mean (V3 (day 28)): 2.63
General Questionnaire Attention Q17, Mean (V3 (day 28)): 2.48
General Questionnaire Attention Q18, Mean (V3 (day 28)): 2.26
General Questionnaire Attention Q19, Mean (V3 (day 28)): 6.41
General Questionnaire Attention Q20, Mean (V3 (day 28)): 3.22
General Questionnaire Attention Q21, Mean (V3 (day 28)): 3.15
General Questionnaire Attention Q22, Mean (V3 (day 28)): 3.35
General Questionnaire Attention Q23, Mean (V3 (day 28)): 3.70
General Questionnaire Attention Q24, Mean (V3 (day 28)): 2.96
General Questionnaire Attention Total, Mean (V3 (day 28)): 38.73
General Questionnaire Complexion Q33, Mean (V3 (day 28)): 2.30
General Questionnaire Complexion Q34, Mean (V3 (day 28)): 1.67
General Questionnaire Complexion Total, Mean (V3 (day 28)): 3.96
General Questionnaire Depression Q4, Mean (V3 (day 28)): 1.81
General Questionnaire Depression Q5, Mean (V3 (day 28)): 2.30
General Questionnaire Depression Q6, Mean (V3 (day 28)): 2.00
General Questionnaire Depression Q7, Mean (V3 (day 28)): 3.33
General Questionnaire Depression Q8, Mean (V3 (day 28)): 1.81
General Questionnaire Depression Q9, Mean (V3 (day 28)): 2.89
General Questionnaire Depression Q10, Mean (V3 (day 28)): 2.07
General Questionnaire Depression Q11, Mean (V3 (day 28)): 2.15
General Questionnaire Depression Q12, Mean (V3 (day 28)): 2.67
General Questionnaire Depression Total, Mean (V3 (day 28)): 21.04
General Questionnaire Sleep Q25, Mean (V3 (day 28)): 2.33
General Questionnaire Sleep Q26, Mean (V3 (day 28)): 2.15
General Questionnaire Sleep Q27, Mean (V3 (day 28)): 2.07
General Questionnaire Sleep Q28, Mean (V3 (day 28)): 2.78
General Questionnaire Sleep Q29, Mean (V3 (day 28)): 2.19
General Questionnaire Sleep Q30, Mean (V3 (day 28)): 1.96
General Questionnaire Sleep Q31, Mean (V3 (day 28)): 1.93
General Questionnaire Sleep Q32, Mean (V3 (day 28)): 3.56
General Questionnaire Sleep Total, Mean (V3 (day 28)): 18.96
General Questionnaire Vision Q1, Mean (V3 (day 28)): 2.33
